pIC50: −log10 of the molar value.
Legend:
TrkA (h) = target: T1, TrkA (h) (Homo sapiens, UniProt P04629); assay: Radiometric based mixed micelle kinase assay; type: biochemical; details: read-out: IC50 antagonizing the TrkA kinase activity
T1 construct: Recombinant Human Cytoplasmic Domain (amino acids 441-796); His tag; host or cells: insect cells
Protocol: Compound Inhibition in a Radiometric Based Mixed Micelle Assay:
In a final reaction volume of 25 μL, TrkA (h) (3 nM) is incubated with the kinase reaction buffer (20 mM HEPES (pH 7.5), 10 mM MgCl2, 1 mM EGTA, 0.02% Brij 35, 0.02 mg/ml BSA, 0.1 mM Na3VO4, 2 mM DTT, 1% DMSO), 0.2 mg/ml substrate PolyEY(4:1) and […], and [33P-ATP] (specific activity approx. 500 cpm/pmol, concentration as required). The reaction is initiated by the addition of the MgATP mix. After incubation for at least 40 minutes at room temperature, the reaction is stopped by the addition of 5 μL of a 3% phosphoric acid solution. 10 μL of the reaction is then spotted onto a P30 filtermat and washed three times for 5 minutes in 75 mM phosphoric acid and once in methanol prior to drying and scintillation counting. TrkA: Recombinant Human Cytoplasmic Domain (amino acids 441-796), Histidine-tagged, expressed in insect cells. Activated in vitro via auto-phosphorylation. Mw=42.8 kDa. Substrates for kinases: poly(EY) for TRKA; poly(EY)(4:1) with 2 mM MnCl2, average Mw=16 kDa Standard conditions (unless otherwise specified): 30 nM TRKA, 0.2 mg/ml poly(EY)+2 mM MnCl2, and 10 μM ([γ-^33P]) ATP. Using the similar assay condition with other kinases of recombinant human cytoplasmic domain, the activities of other kinases could be also measured.

CCI rats = assay: Chronic constriction injury (CCI) model of neuropathic pain in rats; type: in vivo, rat; details: CCI rats after single oral dose
From the text: Chronic Constriction Injury (CCI) Model of Neuropathic Pain in Rats.
The CCI model is one of the most commonly used mono-neuropathic pain model firstly described in details by Bennett and Xie (Bennett G J, Xie Y K. Pain. 1988; 33(1):87-107). It mimics important clinical chronic pain symptoms such as mechanical allodynia and thermal hyperalgesia. Chronic constriction injury of the sciatic nerve was produced by tying four loose ligatures around the left sciatic nerve according to the method of Bennett and Xie. […] Calibrated von Frey filaments were used to determine the lowest mechanical (tactile) threshold required to evoke a brisk paw withdrawal reflex in the rat hindpaws. Rats were allowed to acclimatize in wire mesh cages for 15-20 min prior to von Frey testing. Assessment of paw withdrawal thresholds (PWTs) using von Frey filaments was undertaken prior to CCI-surgery (pre-surgery baseline on day 0). Before the drug dosing on day 14, the pre-dose baseline was recorded for each rat. […] Drug-naïve CCI-rats (n=4-6 per group) were used. The oral vehicle was 0.5% CMC-Na/0.1% Tween 80 in distilled water. The positive control gabapentin was dissolved in the vehicle and orally given at 100 mg/kg (by oral gavage). Test compound was suspended in the vehicle and orally given at 50 mg/kg and 100 mg/kg. […]

T1 sequence (P04629 441-796): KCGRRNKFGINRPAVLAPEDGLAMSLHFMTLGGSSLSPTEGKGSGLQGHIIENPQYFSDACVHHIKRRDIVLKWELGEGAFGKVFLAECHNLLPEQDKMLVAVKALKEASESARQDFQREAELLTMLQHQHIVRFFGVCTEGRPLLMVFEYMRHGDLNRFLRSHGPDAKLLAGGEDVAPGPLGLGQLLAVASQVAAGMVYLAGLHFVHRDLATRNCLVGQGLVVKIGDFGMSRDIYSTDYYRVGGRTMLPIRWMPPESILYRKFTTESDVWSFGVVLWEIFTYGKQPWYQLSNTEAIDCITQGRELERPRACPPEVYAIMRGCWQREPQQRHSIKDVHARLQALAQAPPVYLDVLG

Structure (SMILES) | pIC50 (TrkA (h)) | Observed side effects (drowsiness, motor incoordination, other abnormality) (CCI rats)
Cc1ccc(Cl)cc1N1CCN(CCCNC(=O)c2ccc3c(c2)NC(=O)C2CCCCN32)CC1 (centres unmarked) [Compound 201, N-{3-[4-(5-chloro-2-methylphenyl)piperazin-1-yl]propyl}-6-oxo-6,6a,7,8,9,10-hexahydro-5H-pyrido[1,2-a]quinoxaline-3-carboxamide] | 7.07 | 
NCC1(CC(=O)O)CCCCC1 [gabapentin] |  | drowsiness or motor incoordination

Reference: US9738659B2, “Compositions of protein receptor tyrosine kinase inhibitors” (Purdue Pharma L.P., priority 2008, dated 2017)
